The source of these data is US5973228A, “Coniferin beta-glucosidase cDNA for modifying lignin content in plants” (University of British Columbia, priority 1998, dated 1999).

Assay [1] deals with T1, E. coli-expressed (recombinant) coniferin beta-glucosidase (CBG) (Pinus contorta, UniProt Q9ZT64).
T1 construct: coding region for the mature protein (i.e. excluding the signal peptide) was amplified; Met-Ala-Ser (three non-CBG vector residues) (N); made in house; host or cells: E. coli BL21 (DE3), vector pET21a
T1 sequence (Q9ZT64 24-513): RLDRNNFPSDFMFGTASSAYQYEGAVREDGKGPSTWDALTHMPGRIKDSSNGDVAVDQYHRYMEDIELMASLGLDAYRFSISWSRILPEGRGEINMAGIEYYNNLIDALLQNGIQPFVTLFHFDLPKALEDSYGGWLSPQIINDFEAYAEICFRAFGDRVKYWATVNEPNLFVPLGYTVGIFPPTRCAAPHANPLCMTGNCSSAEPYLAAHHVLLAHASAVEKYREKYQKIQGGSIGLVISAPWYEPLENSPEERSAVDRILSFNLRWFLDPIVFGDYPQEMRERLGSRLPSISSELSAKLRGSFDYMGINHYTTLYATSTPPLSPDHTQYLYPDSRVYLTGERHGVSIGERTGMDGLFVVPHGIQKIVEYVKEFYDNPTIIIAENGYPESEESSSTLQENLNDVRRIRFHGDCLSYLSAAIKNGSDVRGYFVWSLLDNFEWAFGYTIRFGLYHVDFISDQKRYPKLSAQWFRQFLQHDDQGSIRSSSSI
Briefly: β-glucosidase assay, substrate specificity of E. coli-expressed CBG-cDNA. Conditions: substrate hydrolysis relative to coniferin; 100% activity represents 22pKat; 2 mM glucoside substrate, 0.2M MES pH 5.5, 30° C., 30 min. The format is biochemical. An excerpt:
To express CBG protein in E. coli, the full- length coding region for the mature protein (i.e. excluding the signal peptide) was amplified using the 3' end clone (1A6) as the template with the N-terminal primer, NT1 (5' […] 3', Seq. I.D. No. 9) containing a 5' Nhe1 site, and a C-terminal primer, CT1 (5' […] 3', Seq. I.D. No. 10) containing a Xho 1 site. The resulting 1.5 kb DNA fragment was ligated into Bluescript II KS by T/A cloning as described above. The structure of the junctions of this construct was confirmed by sequencing and it was then inserted as a Nhe1/Xho1 fragment into expression vector pET21a (Novagen). Because, the Nhe1 site was used to introduce the cDNA into the pET vector, three non-CBG amino acids (Met, Ala, Ser) were added to the N-terminus of the expressed protein. To avoid the expression of the vector His-tag at the 3' end, the native stop codon of CBG was included. The expressed protein was thus identical in sequence to the mature CBG expressed in planta, except for the additional tripeptide at the N-terminus. Following transformation into E.coli strain DH5α and verification of the plasmid integrity by restriction digestion, it was introduced into the expression host BL21 (DE3).
To express CBG, the bacteria were grown to log phase (A600 =0.6-0.9) followed by an additional 2-3 h incubation at 29-37° C. in the presence or absence of 0.4-1 mM IPTG. The expressed CBG in the soluble protein fraction was purified by preparative Q-Sepharose chromatography followed by QMA-Memsep (Millipore) chromatography.
(§1) As noted above, the functional characteristic of the CBG enzyme is its ability to hydrolyze coniferin. This activity can be measured using the simple β-glucosidase assay described by Dharwardhana et al. (1995), conducted as follows: enzyme preparations (10-50 μl) and glucoside substrate (coniferin) (2 mM final concentration) in 0.2M MES, pH 5.5 buffer in a final volume of 150 μl are incubated at 30° C. for 30 min. The reaction is stopped by basification of the assay mixture with an equal volume of 0.5M CAPS buffer (Sigma Chemical Co., St. Louis, Mo., pH 10.5 and the activity measured by determining the absorbance of the released aglycone. The activity of the enzyme can be measured not only against coniferin, but also against related glucosides including 4-NPG, 2-NPG, MUG and the synthetic coniferin analog VRA-G. For quantitative calculations, the following analysis wavelengths and values (mM^-1 ×cm^-1) were used: coniferyl alcohol, 325 nm, ε=7.0; sinapyl alcohol, 315 nm, ε=11.2; 2-nitrophenol, 420 nm, ε=4.55, 4-nitrophenol, 400 nm, ε=19.3; 4-methyl umbelliferone, 360 nm, ε=18.25; VRA-G, 490 nm, ε=38.6; salicyl alcohol, 295 nm, ε=3.3.
Soluble proteins and insoluble proteins (inclusion bodies) prepared from induced and uninduced bacterial cells were assayed for coniferin hydrolysis activity by the method described above. […] The activity in this fraction could be increased up to 2-fold by increasing the IPTG concentration from 0.4 -1.0 mM, and by reducing the growing temperature from 37° C. to 29° C. […] This protein was purified by anion exchange chromatography using coniferin as the substrate for monitoring β-glucosidase activity. The purified enzyme often migrated as a doublet on nondenaturing gels. […] The latter would result in the synthesis of a polypeptide that is truncated at the N-terminus, as opposed to the full-length polypeptide initiated by ribosome binding to the standard ribosome binding site in the vector.

The target of assay [2] is T2, native coniferin beta-glucosidase (CBG) purified from pine xylem (Pinus contorta, UniProt Q9ZT64).
T2 construct: from tissue; host or cells: Pinus contorta xylem
T2 sequence (Q9ZT64 24-513): T1 sequence (Q9ZT64 24-513)
Put plainly: β-glucosidase assay, substrate specificity of coniferin β-glucosidase purified from pine xylem. Conditions: substrate hydrolysis relative to coniferin; 100% activity represents 14pKat; 2 mM glucoside substrate, 0.2M MES pH 5.5, 30° C., 30 min. In kind it is biochemical.
Source text: Coniferin beta-glucosidase enzyme was purified from Pinus contorta xylem tissue as described by Dharmwardhana et al. (1995). In order to determine the N-terminal amino acid sequence of the purified enzymne, it was run on native PAGE gels, stained for activity on the synthetic coniferin substrate VRA-G and the staining band excised and subjected to SDS-PAGE. The protein was then transferred to an Immobilon membrane for N-terminal amino acid sequencing using an Applied Biosystems 470A gas phase sequencer (Edman degradation).
as §1

As for `O=[N+]([O-])c1ccccc1O[C@@H]1O[C@H](CO)[C@@H](O)[C@H](O)[C@H]1O` [2-nitrophenyl-β-glucoside, 2-nitrophenyl β-glucoside], the “Relative activity, E. coli CBG” value in assay [1] was 50%. Further, the “Relative activity, Native CBG” value in assay [2] was determined as 51%.

On to `Cc1cc(=O)oc2cc(O[C@@H]3O[C@H](CO)[C@@H](O)[C@H](O)[C@H]3O)ccc12` [4-methyl umbelliferyl-β-glucoside, 4-methylumbelliferyl β-glucoside], for which the “Relative activity, E. coli CBG” value in assay [1] came out at 20%. Besides, the “Relative activity, Native CBG” value in assay [2] was determined as 18%.

Consider `O=[N+]([O-])c1ccc(O[C@@H]2O[C@H](CO)[C@@H](O)[C@H](O)[C@H]2O)cc1` [4-nitrophenyl-β-glucoside, 4-nitrophenyl β-glucoside], for which the “Relative activity, E. coli CBG” value in assay [1] was found to be 35%. For the same compound, in assay [2], the “Relative activity, Native CBG” value was 30%.

Consider `COc1cc(/C=C/CO)ccc1O[C@@H]1O[C@H](CO)[C@@H](O)[C@H](O)[C@H]1O` [coniferin], for which the “Relative activity, E. coli CBG” value in assay [1] was 100%. Besides, the “Relative activity, Native CBG” value in assay [2] is on record as 100%.

As to `COc1cc(/C=C/CO)cc(OC)c1O[C@@H]1O[C@H](CO)[C@@H](O)[C@H](O)[C@H]1O` [syringin], the “Relative activity, E. coli CBG” value in assay [1] is 65%. Moreover, the “Relative activity, Native CBG” value in assay [2] is reported as 51%.
